Ki data for 9 molecules are collected here from BindingDB's records for doi:10.1016/s0960-894x(02)00064-1 (University of Lyon 1, 2002).

Experiment [1] addresses Toxoplasma gondii purine nucleoside phosphorylase (Toxoplasma gondii). Put plainly: Compound was evaluated for its binding affinity against Toxoplasma gondii purine nucleoside phosphorylase from cystic strain ME 49 (value indicates competitive inhibition).
Experiment [2] has the same target. Briefly: Compound was evaluated for its binding affinity against Toxoplasma gondii purine nucleoside phosphorylase of virulent strain RH (value indicates competitive inhibition).
Experiment [3] shares this target. Briefly: Compound was evaluated for its binding affinity against Toxoplasma gondii purine nucleoside phosphorylase of virulent strain RH (value indicates Non competitive inhibition).
For experiment [4] the target is unchanged. Put plainly: Compound was evaluated for its binding affinity against Toxoplasma gondii purine nucleoside phosphorylase from cystic strain ME 49 (value indicates Non competitive inhibition).
The target is the same in experiment [5]. Put plainly: Compound was evaluated for its binding affinity against Toxoplasma gondii purine nucleoside phosphorylase of virulent strain RH (value indicates competitive inhibition). The source holds these as a separate data set.

In the case of `Cc1nc2c(n1Cc1ccccc1)C(=O)C=CC2=O` [1-Benzyl-2-methyl-1H-benzoimidazole-4,7-dione], the Ki in experiment [1] was found to be 300 µM; in experiment [2], 1050 µM.

As to `O=C1C=CC(=O)c2c1ncn2Cc1cccc(F)c1` [1-(3-Fluoro-benzyl)-1H-benzoimidazole-4,7-dione], the Ki in experiment [3] came to 990 µM; in experiment [4], 520 µM.

On to `O=C1C=CC(=O)c2[nH]cnc21` [1H-Benzoimidazole-4,7-dione], for which the values for the Ki in experiment [3] and in experiment [4] were 1650 µM and 550 µM, respectively.

As to `O=c1[nH]cnc2c1cnn2[C@@H]1O[C@H](CO)[C@@H](O)[C@H]1O`, the figures for the Ki in experiment [2] and in experiment [5] were 2000 µM and 1800 µM, respectively.

Turning to `Cn1cnc2c1C(=O)C=CC2=O` [1-Methyl-1H-benzoimidazole-4,7-dione], the Ki in experiment [3] turned out to be 2210 µM.

Turning to `O=C1C=CC(=O)c2c1nc(Cc1ccccc1)n2Cc1ccccc1` [1,2-Dibenzyl-1H-benzoimidazole-4,7-dione], the values for the Ki in experiment [1] and in experiment [5] were 350 µM and 670 µM, respectively.

In the case of `O=C1C=CC(=O)c2c1ncn2Cc1ccccc1F` [1-(2-Fluoro-benzyl)-1H-benzoimidazole-4,7-dione], the Ki in experiment [3] was found to be 1480 µM; in experiment [4], 1500 µM.

In the case of `O=C1C=CC(=O)c2c1ncn2Cc1ccc(F)cc1` [1-(4-Fluoro-benzyl)-1H-benzoimidazole-4,7-dione], the Ki was 780 µM in experiment [3] and 990 µM in experiment [4].

As to `CCCCn1cnc2c1C(=O)C=CC2=O` [1-Butyl-1H-benzoimidazole-4,7-dione], the Ki in experiment [3] was found to be 2960 µM; in experiment [4] it was 560 µM.

By Ki is commonly meant the equilibrium dissociation constant of an inhibitor or competing ligand from its target. Low values mean higher affinity, high ones lower affinity.
